Inhibition data for two compounds are collected here from patent publication US20040192928A1, “Novel compounds of the family of 3-alkyl-(4,5-diphenyl-imidazol-1-yl) and their use as soothing agents” (priority 2001, published 2004).

This assay has as its system interleukin-8 secreted by normal human epidermal keratinocytes (NHEKs). Description: Inhibition of IL-8 secretion by NHEKs after stimulation with PMA (anti-irritant test). Type of assay: cell-based. As to conditions: NHEK, test compounds at 10 μM, NHEKs with 160 nM PMA, 24 hours at 37° C., IL-8 by ELISA. An excerpt: Inhibition of the response of superficial epidermal cells to an irritant agent by assay of the interleukin-8 secreted by normal human epidermal keratinocytes (NHEKs) after stimulation with phorbol 12-myristate 13-acetate (PMA) as irritant agent.
This study uses the test developed by Wilmer [Wilmer, J. L. et al., J. invest. Dermatol., 102: 915-922 (1994)]. This test allows the evaluation of the antiirritant potential of various molecules, on a human keratinocyte (NHEK) cell line. In this test, an irritant situation is mimicked by exacerbating the production of IL-8 of the NHEKs by adding PMA to the culture medium, IL-8 being involved in initiating the keratinocyte irritation. The antiirritant effect of a molecule is then measured by means of its inhibitory action with respect to this exacerbated production.
Normal human epidermal keratinocytes (NHEKs) sold by the company Clonetics and distributed in France by the company TEBU are incubated in the presence of 160 nM of PMA for 24 hours at 37° C. In response to the PMA, the production of the chemotactic agent interleukin-8 (IL-8) is measured by enzymatic assay using an assay kit (Elisa D8050) sold by the company R&D. The absorbance values are measured using a microplate reader (MRX/Dynatech) according to the procedures supplied with. the assay kit. […]
Background: In an ELISA, binding on a coated surface is turned into a signal by an enzyme label.

Usually inhibition stands for the change of the read-out against control, counted positive when it falls. Read a high inhibition as a strong effect. `c1ccc(OCCCn2cnc(-c3ccccc3)c2-c2ccccc2)cc1` [3-phenoxypropyl(4,5-diphenylimidazol)-1-yl] gave an inhibition at 10 µM of 32%. As to `c1ccc(COCCCn2cnc(-c3ccccc3)c2-c2ccccc2)cc1` [Example 1, 3-benzyloxypropyl-(4,5-diphenylimidazol)-1-yl], testing at 10 µM gave an inhibition of 41%.
